Measured values from patent EP1123702A1, “ANALGESICS” (Eisai Co., Ltd., priority 1998, dated 2000).

Columns and labels:
writhing behavior = assay: Analgesic action by a writhing method using acetic acid; format: in vivo, Male mice of a ddY strain; conditions: sc; statistically minimum effective dose; 0.6% acetic acid ip 15 minutes after the drug, writhing counted for ten minutes; mice
5HT1A = target: T1, 5HT1A (Homo sapiens, UniProt P08908); assay: Serotonin (5HT) receptor binding action (RBA; in vitro), 5HT1A; conditions: method of JP98/01481 or JP-A 10-281752
T1 sequence (P08908 1-422): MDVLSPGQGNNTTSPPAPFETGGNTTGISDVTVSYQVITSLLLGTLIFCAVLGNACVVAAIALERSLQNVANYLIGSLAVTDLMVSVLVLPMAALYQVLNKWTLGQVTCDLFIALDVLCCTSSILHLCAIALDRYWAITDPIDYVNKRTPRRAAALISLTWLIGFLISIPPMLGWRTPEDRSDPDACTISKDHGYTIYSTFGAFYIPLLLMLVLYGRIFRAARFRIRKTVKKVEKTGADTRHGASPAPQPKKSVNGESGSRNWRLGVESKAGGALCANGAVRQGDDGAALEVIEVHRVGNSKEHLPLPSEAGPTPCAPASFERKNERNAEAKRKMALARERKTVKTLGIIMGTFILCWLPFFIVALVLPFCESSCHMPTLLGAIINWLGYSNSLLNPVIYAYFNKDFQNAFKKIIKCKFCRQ

5HT2 = 5HT2 (Homo sapiens, UniProt P28223); assay: Serotonin (5HT) receptor binding action (RBA; in vitro), 5HT2; conditions: method of JP98/01481 or JP-A 10-281752
[1] = Muscle relaxing action (in vivo); conditions: method of JP98/01481 or JP-A 10-281752
Description: There are also shown a serotonin (5HT) receptor binding action (RBA; in vitro) and a muscle relaxing action (in vivo) measured according to a method described in JP98/01481 or JP-A 10-281752. (In the table, "n.t." means "not tested").

5HT2, sequence (P28223 whole entry, species assumed): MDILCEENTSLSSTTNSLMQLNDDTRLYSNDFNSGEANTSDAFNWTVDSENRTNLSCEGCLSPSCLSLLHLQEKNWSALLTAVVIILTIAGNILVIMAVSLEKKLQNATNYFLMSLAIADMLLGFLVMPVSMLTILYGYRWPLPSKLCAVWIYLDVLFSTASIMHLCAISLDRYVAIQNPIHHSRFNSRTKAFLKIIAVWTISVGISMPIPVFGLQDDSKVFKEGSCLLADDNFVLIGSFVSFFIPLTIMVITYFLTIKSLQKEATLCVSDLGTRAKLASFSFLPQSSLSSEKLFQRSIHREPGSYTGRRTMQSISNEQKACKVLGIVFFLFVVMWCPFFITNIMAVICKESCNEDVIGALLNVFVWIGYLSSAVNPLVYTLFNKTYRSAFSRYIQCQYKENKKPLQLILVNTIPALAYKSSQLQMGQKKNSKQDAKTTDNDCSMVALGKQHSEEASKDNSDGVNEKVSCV

Structure (SMILES)	Analgesic Action (minimum effective dose) (writhing behavior)	Ki (5HT1A)	Ki (5HT2)	Muscle-Relaxing Action (ip) [1]	Muscle-Relaxing Action (po) [1]
CCC(O)c1ccc(-c2cc3ccccc3c(N3CCN(CC)CC3)n2)cc1 (stereo not shown) [(17), 1-(4-ethylpiperazin-1-yl)-3-[4-(1-hydroxypropyl)phenyl]isoquinoline]	1 mg/kg	6.9 nM	1.6 nM	1 mg/kg	10 mg/kg
CCN1CCN(c2nc(-c3ccc(OCC(C)(C)O)cc3)cc3sccc23)CC1.Cl [(25), 4-(4-ethylpiperazin-1-yl)-6-[4-(2-hydroxy-2-methylpropoxy)phenyl]thieno[3,2-c]pyridine hydrochloride]	10 mg/kg	54.9 nM	1.4 nM	0.3 mg/kg	1 mg/kg
